From PubChem BioAssay (NCI)
Several values for one entry are separate records, joined by “and”; a condition that tells them apart may be missing. Equal values may be shown once.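 Cultured in 96-well plates, cells were exposed to test compound for 48 hours across five concentrations. Here, GI50 denotes the concentration required for 50% inhibition of growth. TGI is the concentration that stops growth completely.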

How the values were obtained:
Test in all cases: DTP human tumour cell line panel, 48 h
[1] = tested on: 786-0 renal
[2] = tested on: A549 NSCLC
[3] = tested on: COLO 205 colon
[4] = tested on: HCT-116 colon
[5] = tested on: HCT-15 colon
[6] = tested on: MALME-3M melanoma
[7] = tested on: RPMI-8226 leukemia
[8] = tested on: SK-MEL-28 melanoma
[9] = tested on: SN12C renal
[10] = tested on: SW-620 colon

Row | Compound | GI50 [1] [µM] | TGI [1] | GI50 [2] [µM] | TGI [2] | GI50 [3] [µM] | TGI [3] | GI50 [4] [µM] | TGI [4] | GI50 [5] [µM] | TGI [5] | GI50 [6] [µM] | TGI [6] | GI50 [7] [µM] | TGI [7] [µM] | GI50 [8] [µM] | TGI [8] | GI50 [9] [µM] | TGI [9] [µM] | GI50 [10] [µM] | TGI [10]
1 | CC(=O)c1ccc(Nc2cc(-c3ccccc3)nc3c(O)cccc23)cc1 | 8.8 | 83.4 µM | 30.6 | > 100 µM | 32.1 | > 100 µM | 5.79 | 90.2 µM | 8.31 | > 100 µM | 19.6 | 68.3 µM | 8.8 | 46.8 | 23.1 | 88.8 µM | 24.7 | 58.2 | 7.06 | > 100 µM
2 | CN1CCN(Cc2ccc(C(=O)Nc3cncc(C#Cc4cnc(N)c5ccccc45)c3)cc2C(F)(F)F)CC1 | 1.78 | 3.25 µM | 1.94 | 3.85 µM | 3.69 | 13.3 µM | 1.36 | 2.7 µM | 1.94 | 4.6 µM | 1.71 | 3.25 µM | 2.15 | 5.27 | 1.75 | 3.22 µM | 1.8 | 3.47 | 1.78 | 3.89 µM
3 | C=C1C(O)C2CCC(C)(C)C(=O)C2=C(CC(C)C)C12CC2 (centres undefined) | > 100 | > 100 µM | 93.3 | > 100 µM | 22.7 | 53.6 µM | 37.2 | > 100 µM | 54.4 | > 100 µM | 35.6 | > 100 µM | 22.3 | 56.8 | 43.6 | > 100 µM | 63.8 | > 100 | 42 | > 100 µM
4 | Cc1ccc2c(C(C[N+](=O)[O-])c3cccs3)c(-c3ccccc3)[nH]c2c1 (centres undefined) | 2.26 | 7.89 µM | 2.73 | 15.1 µM | 2.46 | 12.6 µM | 1.31 | 4.56 µM | 1.44 | 7.46 µM | 1.55 | 6.12 µM | 2.05 | 23.7 | 2.99 | 8.41 µM | 1.89 | 7.01 | 1.39 | 8.12 µM
5 | O=C(/C=C/c1ccccc1)/C=C/c1ccccc1O |  | 32.4 µM |  | 54.3 µM |  | 31.1 µM |  | 28.7 µM |  | 32.8 µM |  | 1.83 µM |  | 43.8 |  | 81 µM |  | 30.4 |  | 23.8 µM
6 | COC(=O)C(=O)CC(=O)CCn1ncc(Cl)c(Cl)c1=O |  | 43.6 µM |  | 36.5 µM |  | 31.8 µM |  | 23.7 µM |  | 15.7 µM |  | 21.3 µM |  | 52.6 |  | 21.9 µM |  | 29.9 |  | 13.3 µM
7 | C=C1C(=O)O[C@H]2[C@H]1CC/C(CNC(=O)c1c[nH]c3ccc(F)cc13)=C\CC[C@@]1(C)O[C@@H]21 | 1.33 | 2.85 µM | 4.59 | 19.6 µM | 0.583 | 2.14 µM | 0.632 | 1.98 µM | 0.732 | 2.21 µM | 1.41 | 3.3 µM | 1.14 | 3.72 | 1.33 | 3.16 µM | 1.98 | 5.42 | 0.639 | 2.1 µM
8 | NC(N)=N/N=C(/c1ccccc1)c1ccc(F)cc1 | 0.638 | 13.9 µM | 0.512 | > 34.6 µM | 0.267 | 0.841 µM | 0.33 | 4.15 µM | 0.4 | 13.4 µM | 0.368 | 22 µM | 0.558 | 21.6 | 0.528 | 23 µM | 0.817 | 22.2 | 0.376 | 19.3 µM
9 | Oc1ccccc1/C=N/Nc1ccc2ccccc2n1 | 5.81 | > 100 µM | 5.33 | > 100 µM | 3.66 | > 100 µM | 4.51 | > 100 µM | 0.838 | > 100 µM | 8.18 | > 100 µM | 3.45 | > 100 | 11.8 | > 100 µM | 4.92 | > 100 | 4.64 | > 100 µM
10 | CN1CCN(CC#Cc2cccc(C(=O)c3cnn(-c4ccc(F)cc4)c3N)c2)CC1 | > 25 | > 25 µM | > 25 | > 25 µM | > 25 | > 25 µM | > 25 | > 25 µM | > 25 | > 25 µM | > 25 | > 25 µM | > 25 | > 25 | > 25 | > 25 µM | > 25 | > 25 | > 25 | > 25 µM
11 | COc1ccc(C(=S)N2CCN(c3cccc(Cl)c3)CC2)cc1 | > 100 | > 100 µM | > 100 | > 100 µM | > 100 | > 100 µM | > 100 | > 100 µM | > 100 | > 100 µM | > 100 | > 100 µM | 45.4 | > 100 | > 100 | > 100 µM | > 100 | > 100 | > 100 | > 100 µM
12 | CC(=O)[CH-]C(=O)c1ccccc1.CC(=O)[CH-]C(=O)c1ccccc1.CCCCCCCCCCCCCCCCCC(=O)[O-].CCCCCCCCCCCCCCCCCC(=O)[O-].[Ti+4] | 18.8 | 33.2 µM | 19 | 37.3 µM | 87.4 | > 100 µM | 18.3 | 36.5 µM | 32.9 | 69.6 µM | 36.7 | > 100 µM | 21.6 | 55.4 | 23.7 | 60.5 µM | 29.9 | 73.5 | 33.3 | > 100 µM
13 | CSC1=NC=CCN1C |  | > 100 µM |  | > 100 µM |  | > 100 µM |  | > 100 µM |  | > 100 µM |  | > 100 µM |  | > 100 |  | > 100 µM |  | > 100 |  | > 100 µM
14 | C=CC1=CSNN1 |  | > 100 µM |  | > 100 µM |  | > 100 µM |  | > 100 µM |  | > 100 µM |  | > 100 µM |  | > 100 |  | > 100 µM |  | > 100 |  | > 100 µM
15 | CCn1c(-c2nonc2N)nc2c(C#CCN)ncc(OCCCN)c21 | > 25 | > 25 µM | > 25 | > 25 µM | > 25 | > 25 µM | > 25 | > 25 µM | > 25 | > 25 µM | > 25 | > 25 µM | > 25 | > 25 | > 25 | > 25 µM | > 25 | > 25 | > 25 | > 25 µM
16 | C#CCNC(=O)NC(CCCNC(=O)OCc1ccccc1)C(=O)OCc1ccccc1 (centres undefined) |  | > 100 µM |  | > 100 µM |  | > 100 µM |  | > 100 µM |  | > 100 µM |  | > 100 µM |  | > 100 |  | > 100 µM |  | > 100 |  | > 100 µM
17 | COC1(C(=O)N2Cc3nc(Cl)nc(N[C@H](C)c4cc(N)cc(C(F)(F)F)c4)c3C2)CCOCC1 | 18.7 | 68.4 µM | 21.1 | > 100 µM | 18 | 33.8 µM | 15.2 | 30.4 µM | 23.2 | > 76.3 µM | 17.3 | 43 µM | 22.2 | > 83.2 | 16.2 | 30.9 µM | 12.4 | 53.4 | 24.8 | > 86.3 µM
18 | CC(=O)OCC1OC(O[C@@H]2C[C@H]3C(C)(C)[C@H](OC(C)=O)CC[C@]3(C)[C@H]3CCC4=C([C@@H](C)C[C@@H](O)[C@H](O)C(C)(C)O)CC[C@@]4(C)[C@@]32C)C(O)C(O)C1O (some centres undefined) | 18.2 | 32.7 µM | 19 | 33.3 µM | 16 | 30.2 µM | 14.2 | 27.2 µM | 17.1 | 30.8 µM | 16.5 | 30.4 µM | 10.5 | 30.1 | 17 | 30.9 µM | 16.4 | 30 | 16.8 | 30.7 µM
19 | CN=C(N)N/N=C(\c1ccccc1)c1ccc(Br)cc1 | 0.523 | 4.91 µM | 0.394 | 10.1 µM | 0.279 | 1.04 µM | 0.309 | 3.3 µM | 0.306 | 7.24 µM | 1.13 | 4.24 µM | 0.441 | 3.13 | 0.844 | 5.38 µM | 0.451 | 6.27 | 0.417 | 16.3 µM
20 | Clc1ccccc1C(c1ccccc1)(c1ccccc1)n1ccnc1 | 3.05 | 10.6 µM and 43 µM | 2.43 | 13.3 µM and 29.3 µM | 1.76 | 3.28 µM and 29 µM | 1.44 | 3.35 µM and 23 µM | 2.58 | 12.5 µM and 22.7 µM | 1.74 | 7.24 µM and 16.9 µM |  | > 62.7 | 3.86 | 15.6 µM and 36.1 µM | 2.63 | 13.3 | 3.28 | 13.3 µM and 40.1 µM
21 | CC(C)(C)c1cc(O)c(O)c(C(C)(C)C)c1 | 4.6 | 16.2 µM | 3.49 | 12.2 µM | 3.61 | 12.2 µM | 1.83 | 3.41 µM | 3.38 | 11.2 µM | 3.13 | 9.71 µM | 3.17 | 7.69 | 3 | 10.7 µM | 4.82 | 21.3 | 1.8 | 3.23 µM
